Results taken from ChEMBL document CHEMBL1157984, “Tsugicoline E, a new polyoxygenated protoilludane sesquiterpene from the fungus laurilia tsugicola1” (J Nat Prod, 1999).
The source made the active and inactive calls.

How the values were obtained:
Type in all cases: functional, organism-based
[1] = tested on: Saccharomyces cerevisiae; test: Antimicrobial activity against Saccharomyces cerevisiae at 100 ug/disk
[2] = tested on: Bacillus cereus; test: Antimicrobial activity against Bacillus cereus at 100 ug/disk
[3] = tested on: Bacillus subtilis; test: Antimicrobial activity against Bacillus subtilis at 100 ug/disk

Measured: Activity

CC1(C)C[C@H]2[C@H](O)[C@]3(O)CO[C@]4(O)[C@@H](O)[C@@](C)([C@H]34)[C@H]2C1
inactive: all assays above
